Source: PubChem BioAssay AID256 (DTP/NCI, 2004)
Where “and” joins values, the source holds several entries; their conditions need not be identical. Equal values may be shown once. Inconclusive results and toxic doses are left out.

Test system: CD2F1 mice, L1210 leukemia ip, survival T/C
Assay: NCI In Vivo Anticancer Drug Screen. Data for tumor model L1210 Leukemia (intraperitoneal) in CD2F1 (CDF1) mice
Conditions: endpoint: mean survival time, higher = longer survival
In short: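 In this screen, transplantable tumors were grown in mice given either the compound or its vehicle. Results were expressed as the treated measurement relative to the control measurement.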

[1] = dose: 100.0 mg/kg/injection, schedule: Q01DX001 (ip), vehicle: Klucel (hydroxypropylcellulose) (HPC)
[2] = dose: 200.0 mg/kg/injection, schedule: Q01DX001 (ip), vehicle: Klucel (hydroxypropylcellulose) (HPC)
[3] = dose: 400.0 mg/kg/injection, schedule: Q01DX001 (ip), vehicle: Klucel (hydroxypropylcellulose) (HPC)
[4] = dose: 100.0 mg/kg/injection, schedule: Q01DX001 (ip), vehicle: saline
[5] = dose: 200.0 mg/kg/injection, schedule: Q01DX001 (ip), vehicle: saline
[6] = dose: 100.0 mg/kg/injection, schedule: Q01DX001 (ip), vehicle: saline with Tween-80
[7] = dose: 100.0 mg/kg/injection, schedule: Q01DX009 (ip), vehicle: saline with Tween-80
[8] = dose: 100.0 mg/kg/injection, schedule: Q04DX003 (ip), vehicle: saline with Tween-80
[9] = dose: 200.0 mg/kg/injection, schedule: Q01DX001 (ip), vehicle: saline with Tween-80
[10] = dose: 200.0 mg/kg/injection, schedule: Q01DX009 (ip), vehicle: saline with Tween-80
[11] = dose: 200.0 mg/kg/injection, schedule: Q04DX003 (ip), vehicle: saline with Tween-80
[12] = dose: 400.0 mg/kg/injection, schedule: Q01DX001 (ip), vehicle: saline with Tween-80
[13] = dose: 400.0 mg/kg/injection, schedule: Q01DX009 (ip), vehicle: saline with Tween-80
[14] = dose: 400.0 mg/kg/injection, schedule: Q04DX003 (ip), vehicle: saline with Tween-80
[15] = dose: 400.0 mg/kg/injection, schedule: Q01DX001 (ip), vehicle: saline
[16] = dose: 50.0 mg/kg/injection, schedule: Q01DX009 (ip), vehicle: saline with Tween-80

`c1ccc(N/N=C(/C[n+]2cc3ccccc3c3ccccc32)c2ccccc2)cc1` was tested, and the T/C (dose: 100.0 mg/kg/injection, schedule: Q04DX003 (ip), vehicle: Klucel (hydroxypropylcellulose) (HPC)) was 94 % of control, the T/C (dose: 200.0 mg/kg/injection, schedule: Q04DX003 (ip), vehicle: Klucel (hydroxypropylcellulose) (HPC)) was 106 % of control and the T/C (dose: 400.0 mg/kg/injection, schedule: Q04DX003 (ip), vehicle: Klucel (hydroxypropylcellulose) (HPC)) was 109 % of control.
With `O=C(COc1ccccc1)Nc1ccc(Br)cc1` the T/C [1] was 97 % of control, the T/C [2] was 105 % of control and the T/C [3] was 105 % of control.
`[Ni+2].[S-]Cc1ccccc1.[S-]Cc1ccccc1` was tested, and the T/C [4] was 100 % of control and the T/C [5] was 96 % of control.
For `Cc1ncc(COP(=O)(O)O)c(C=NC(Cc2ccc(O)c(O)c2)C(=O)O)c1O.O.[Cu]` (stereo not drawn), the T/C (dose: 12.5 mg/kg/injection, schedule: Q01DX001 (ip), vehicle: saline) was 100 % of control, the T/C (dose: 25.0 mg/kg/injection, schedule: Q01DX001 (ip), vehicle: saline) was 93 % of control and the T/C (dose: 50.0 mg/kg/injection, schedule: Q01DX001 (ip), vehicle: saline) was 86 % of control.
For `CC1CC(C)(C)NC1=O` (stereo not drawn), the T/C (dose: 6.25 mg/kg/injection, schedule: Q04DX003 (ip), vehicle: saline) was 103 % of control, the T/C (dose: 12.5 mg/kg/injection, schedule: Q04DX003 (ip), vehicle: saline) was 104 % of control and the T/C (dose: 25.0 mg/kg/injection, schedule: Q04DX003 (ip), vehicle: saline) was 95 % of control.
In the case of `C/C(=C\C(=O)Nc1ccc(S(=O)(=O)F)cc1)c1ccc([N+](=O)[O-])cc1`, the T/C (dose: 25.0 mg/kg/injection, schedule: Q04DX002 (ip), vehicle: saline with Tween-80) was 103 % of control and 104 % of control, the T/C (dose: 50.0 mg/kg/injection, schedule: Q04DX002 (ip), vehicle: saline with Tween-80) was 96 % of control and 102 % of control and the T/C [6] was 97 % of control. The T/C [7] was 104 % of control and 106 % of control, the T/C (dose: 100.0 mg/kg/injection, schedule: Q04DX002 (ip), vehicle: saline with Tween-80) was 100 % of control (2×) and 104 % of control and the T/C [8] was 104 % of control. For the same compound, the T/C [9] was 92 % of control, the T/C [10] was 96 % of control and the T/C (dose: 200.0 mg/kg/injection, schedule: Q04DX002 (ip), vehicle: saline with Tween-80) was 96 % of control and 102 % of control and 107 % of control. The T/C [11] was 101 % of control, the T/C [12] was 95 % of control and the T/C [13] was 96 % of control and 100 % of control. The T/C (dose: 400.0 mg/kg/injection, schedule: Q04DX002 (ip), vehicle: saline with Tween-80) was 98 % of control and the T/C [14] was 93 % of control.
In the case of `CN(C)c1ccc(/C=N/NC(=O)c2ccccc2N)c(Cl)c1`, the T/C [7] was 87 % of control and the T/C [10] was 87 % of control.
`CC(=N\O)/C(C)=N/O.CC(=N\O)/C(C)=N/O.O.[CH3-].[Co]` was tested, and the T/C (dose: 25.0 mg/kg/injection, schedule: Q04DX003 (ip), vehicle: Klucel (hydroxypropylcellulose) (HPC)) was 95 % of control and the T/C (dose: 50.0 mg/kg/injection, schedule: Q04DX003 (ip), vehicle: Klucel (hydroxypropylcellulose) (HPC)) was 95 % of control.
`CCCC(C)C1(CC)C(=O)NC(=O)NC1=O` (stereo not drawn) was tested, and the T/C (dose: 20.0 mg/kg/injection, schedule: Q01DX009 (ip), vehicle: saline) was 95 % of control and the T/C (dose: 40.0 mg/kg/injection, schedule: Q01DX009 (ip), vehicle: saline) was 104 % of control.
`CC1=[S+]c2ccccc2C2Nc3ccccc3C12` (stereo not drawn) was tested, and the T/C (dose: 100.0 mg/kg/injection, schedule: Q04DX003 (ip), vehicle: acetone) was 103 % of control and the T/C (dose: 200.0 mg/kg/injection, schedule: Q04DX003 (ip), vehicle: acetone) was 105 % of control.
For `Cc1ccc([P+](Cc2ccccc2)(c2ccccc2)c2ccccc2)cc1`, the T/C (dose: 5.0 mg/kg/injection, schedule: Q01DX001 (ip), vehicle: saline) was 108 % of control, the T/C (dose: 10.0 mg/kg/injection, schedule: Q01DX001 (ip), vehicle: saline) was 105 % of control and the T/C (dose: 20.0 mg/kg/injection, schedule: Q01DX001 (ip), vehicle: saline) was 96 % of control. The T/C (dose: 40.0 mg/kg/injection, schedule: Q01DX001 (ip), vehicle: saline) was 109 % of control.
With `CCCCNC(=O)C1CC2c3cccc4[nH]cc(c34)CC2N(C)C1` (stereo not drawn) the T/C (dose: 50.0 mg/kg/injection, schedule: Q04DX003 (ip), vehicle: saline with Tween-80) was 88 % of control and the T/C [8] was 91 % of control.
For `N#CC1(O)CCCCC1`, the T/C (dose: 2.5 mg/kg/injection, schedule: Q01DX009 (ip), vehicle: saline with Tween-80) was 102 % of control, the T/C (dose: 5.0 mg/kg/injection, schedule: Q01DX009 (ip), vehicle: saline with Tween-80) was 104 % of control and the T/C (dose: 5.0 mg/kg/injection, schedule: Q04DX003 (ip), vehicle: saline with Tween-80) was 102 % of control. The T/C (dose: 10.0 mg/kg/injection, schedule: Q01DX009 (ip), vehicle: saline with Tween-80) was 94 % of control and the T/C (dose: 10.0 mg/kg/injection, schedule: Q04DX003 (ip), vehicle: saline with Tween-80) was 102 % of control.
`COC(=O)C(C(=O)OC)C(Br)(C(=O)OC)C(=O)OC` was tested, and the T/C [7] was 98 % of control, the T/C [8] was 91 % of control and the T/C [10] was 103 % of control. For the same compound, the T/C [11] was 91 % of control and the T/C [14] was 95 % of control.
With `Nc1ccccc1NS(=O)(=O)c1ccc(Cl)cc1` the T/C [7] was 95 % of control, the T/C [10] was 101 % of control and the T/C [13] was 106 % of control.
For `CCC(=O)OCCn1c2ccccc2c2c(C)c3cnccc3c(C)c21`, the T/C [7] was 110 % of control, the T/C [8] was 102 % of control and the T/C [11] was 107 % of control. For the same compound, the T/C [13] was 154 % of control and the T/C [14] was 123 % of control.
`O=C(O)c1cc(-c2ccc(Cl)cc2)nc2c(Cl)cc(Cl)cc12` was tested, and the T/C [4] was 101 % of control, the T/C [5] was 97 % of control and the T/C [15] was 100 % of control.
For `Nc1ncnc2snnc12`, the T/C [1] was 100 % of control, the T/C [2] was 96 % of control and the T/C [3] was 100 % of control.
With `CCOc1cccc(Cc2c[nH]c(=O)[nH]c2=O)c1` the T/C [6] was 90 % of control, the T/C [9] was 100 % of control and the T/C [12] was 89 % of control.
With `Clc1ccc(C(c2ccccc2Cl)C(Cl)Cl)cc1` (stereo not drawn) the T/C (dose: 62.5 mg/kg/injection, schedule: Q01DX009 (sc), vehicle: steriod suspending solution) was 95 % of control and 106 % of control, the T/C (dose: 125.0 mg/kg/injection, schedule: Q01DX009 (sc), vehicle: steriod suspending solution) was 98 % of control and 102 % of control and the T/C (dose: 250.0 mg/kg/injection, schedule: Q01DX009 (sc), vehicle: steriod suspending solution) was 95 % of control and 105 % of control. The T/C (dose: 500.0 mg/kg/injection, schedule: Q01DX009 (sc), vehicle: steriod suspending solution) was 101 % of control and 106 % of control.
`O=c1ccnc[nH]1` was tested, and the T/C (dose: 100.0 mg/kg/injection, schedule: Q04DX003 (ip), vehicle: saline sonified) was 93 % of control, the T/C (dose: 200.0 mg/kg/injection, schedule: Q04DX003 (ip), vehicle: saline sonified) was 104 % of control and the T/C (dose: 400.0 mg/kg/injection, schedule: Q04DX003 (ip), vehicle: saline sonified) was 104 % of control.
In the case of `N#Cc1c(F)c(F)cc(F)c1F`, the T/C [7] was 100 % of control, the T/C [8] was 96 % of control and the T/C [10] was 96 % of control. For the same compound, the T/C [11] was 96 % of control and the T/C [14] was 93 % of control.
`O.O=P(O)(O)O.[NH-]C1CCCCC1[NH-].[Pt+2]` (stereo not drawn) was tested, and the T/C (dose: 50.0 mg/kg/injection, schedule: Q04DX003 (ip), vehicle: water) was 120 % of control.
With `Nc1cc(I)c2cccnc2c1O` the T/C (dose: 6.25 mg/kg/injection, schedule: Q01DX009 (ip), vehicle: saline) was 96 % of control, the T/C (dose: 12.5 mg/kg/injection, schedule: Q01DX009 (ip), vehicle: saline) was 111 % of control and the T/C (dose: 25.0 mg/kg/injection, schedule: Q01DX009 (ip), vehicle: saline) was 100 % of control. The T/C (dose: 50.0 mg/kg/injection, schedule: Q01DX009 (ip), vehicle: saline) was 108 % of control.
For `Nc1cc(=O)[nH]c(O)c1C(=O)O`, the T/C [16] was 104 % of control and the T/C [7] was 96 % of control.
For `O=CC(Cc1ccccc1)CC(O)c1ccccc1` (stereo not drawn), the T/C [6] was 95 % of control, the T/C [7] was 107 % of control and the T/C [9] was 88 % of control. The T/C [10] was 96 % of control, the T/C [12] was 91 % of control and the T/C [13] was 96 % of control.
With `COc1c(/C=C/CO)cc2c(c1OC)OCO2` the T/C [8] was 95 % of control, the T/C [11] was 102 % of control and the T/C [14] was 102 % of control.
With `Cc1cc(=O)[nH]c2ccccc12` the T/C [16] was 96 % of control, the T/C [4] was 98 % of control and the T/C [7] was 96 % of control. The T/C [5] was 98 % of control, the T/C [10] was 103 % of control and the T/C [15] was 102 % of control.
`COc1ccc(CN(CCO)Cc2ccccc2)cc1OC` was tested, and the T/C [16] was 100 % of control, the T/C [7] was 90 % of control and the T/C [8] was 98 % of control. The T/C [10] was 100 % of control and the T/C [11] was 97 % of control.
